Common to all, as to assay type: biochemical
The target in test [1] is T1, AKT3 (Homo sapiens, UniProt Q9Y243).
T1 construct: purchased SignalChem
The test can be described thus: AKT Kinase Assay (IMAP fluorescent polarisation) vs AKT3. To be noted: activated AKT3, FAM Crosstide substrate. The method, then:
(§1) Testing of the compounds was performed using an AKT Kinase Assay:
(§2) Activated AKT isoforms 1, 2 and 3 were assayed utilising a 5′ FAM Crosstide (Seq. GRPRTSSFAEG-OH). The extent of kinase phosphorylation was determined by fluorescent polarisation using IMAP progressive binding reagent, which introduces binding beads which allow the reagent to specifically bind to phosphate residues via covalent co-ordination complex bonds.
(§3) iMAP binding solution stops Crosstide/kinase interaction and specifically binds phosphorylated substrates. The degree of phosphorylation is determined by fluorescent polarisation (excitation 485 nm; emission 528 nm) or the reduction in speed of rotation of the excited substrate.
(§4) The following materials were used in the assay: • a) Activated AKT isoforms (SignalChem.) dissolved in Complete Reaction buffer at a pre-determined concentration selected so that the assay was carried out in the linear range. • b) AKT substrate peptide: FAM Crosstide (R7110) Molecular Devices, diluted in complete reaction buffer. • c) iMAP Progressive Screening Express Kit (R8127) Molecular Devices • d) Complete Reaction Buffer containing 0.1% BSA, 10 mM Tris-HCl, 10 mM MgCl2, 0.05% NaN3 and 0.01% phosphate free BSA, 1 mM DTT • e) Progressive Binding Solution containing 75% Buffer A, 25% Buffer B and low volume Binding Reagent which contains the binding entity for the assay • f) ATP diluted in complete reaction buffer • g) Black polystyrene 384 well assay plates (Nunc). • h) Biotek Synergy 4 Hybrid Plate reader.
(§5) 50 μl of test compound was dissolved in DMSO (Sigma Aldrich) and serially diluted in complete reaction buffer to give a fourteen point half log dose response and plated into 384 well black plates. The compound was incubated at room temperature with activated AKT isoform ([…]) at the pre-determined concentration, for 45 minutes.
(§6) […] of ATP solution mixed with 2.5 μl of AKT substrate peptide (FAM Crosstide (R7110) Molecular Devices) were dispensed into each well and the plate centrifuged at 1000 rpm for 20 seconds to ensure homogenous mixing of reagents. The reaction mix was incubated in the dark for one hour at room temperature.
(§7) The kinase reaction was stopped by the addition of Progressive Binding Solution and the mixture allowed to equilibrate for one hour in the dark, at room temperature.
(§8) The fluorescent polarisation generated in each well was determined using a […] Synergy 4 Hybrid plate reader. In brief, each reaction solution was excited at 485 nm with the emission measured at 528 nm in both the parallel and perpendicular pathway.
(§9) The polarisation value generated in each well was calculated by Gen5 software (Biotek) and the % inhibition of kinase activity compared to vehicle control was calculated via GraphPad Prism. IC50 values for each compound were calculated by non-linear regression analysis using Prism software.
(§10) All plates were internally controlled by two methods. Firstly, by calculating the signal:noise ratio; based on kinase polarisation without inhibitor and polarisation generated by complete reaction buffer in the absence of activated kinase. Secondly by determining IC50 values generated by known inhibitors of the AKT isoforms.

In test [2] the target is T2, AKT1 (Homo sapiens, UniProt P31749).
T2 construct: purchased SignalChem
The test can be described thus: AKT Kinase Assay (IMAP fluorescent polarisation) vs AKT1. To be noted: activated AKT1, FAM Crosstide substrate. The procedure: as §1, §2, §3, §4, §5, §6, §7, §8, §9, §10

Test [3] has as its target T3, AKT2 (Homo sapiens, UniProt P31751).
T3 construct: purchased SignalChem
As to the kind of experiment: AKT Kinase Assay (IMAP fluorescent polarisation) vs AKT2. To be noted: activated AKT2, FAM Crosstide substrate. The method, then: as §1, §2, §3, §4, §5, §6, §7, §8, §9, §10

Structures are written as SMILES. Counter-ions that a name gives are not always drawn.

T3 sequence (P31751 whole entry): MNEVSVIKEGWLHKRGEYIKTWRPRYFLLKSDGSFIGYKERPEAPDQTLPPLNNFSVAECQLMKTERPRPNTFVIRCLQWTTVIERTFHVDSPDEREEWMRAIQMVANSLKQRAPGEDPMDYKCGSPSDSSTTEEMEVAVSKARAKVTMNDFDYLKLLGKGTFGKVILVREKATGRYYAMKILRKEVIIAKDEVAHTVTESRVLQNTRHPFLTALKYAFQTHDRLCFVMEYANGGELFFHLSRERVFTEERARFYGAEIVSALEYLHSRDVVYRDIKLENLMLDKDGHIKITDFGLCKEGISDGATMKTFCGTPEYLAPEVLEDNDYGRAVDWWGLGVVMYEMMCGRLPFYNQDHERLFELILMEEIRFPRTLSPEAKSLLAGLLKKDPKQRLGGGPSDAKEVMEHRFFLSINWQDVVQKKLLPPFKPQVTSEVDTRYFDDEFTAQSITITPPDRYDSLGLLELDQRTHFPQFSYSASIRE
T2 sequence (P31749 whole entry): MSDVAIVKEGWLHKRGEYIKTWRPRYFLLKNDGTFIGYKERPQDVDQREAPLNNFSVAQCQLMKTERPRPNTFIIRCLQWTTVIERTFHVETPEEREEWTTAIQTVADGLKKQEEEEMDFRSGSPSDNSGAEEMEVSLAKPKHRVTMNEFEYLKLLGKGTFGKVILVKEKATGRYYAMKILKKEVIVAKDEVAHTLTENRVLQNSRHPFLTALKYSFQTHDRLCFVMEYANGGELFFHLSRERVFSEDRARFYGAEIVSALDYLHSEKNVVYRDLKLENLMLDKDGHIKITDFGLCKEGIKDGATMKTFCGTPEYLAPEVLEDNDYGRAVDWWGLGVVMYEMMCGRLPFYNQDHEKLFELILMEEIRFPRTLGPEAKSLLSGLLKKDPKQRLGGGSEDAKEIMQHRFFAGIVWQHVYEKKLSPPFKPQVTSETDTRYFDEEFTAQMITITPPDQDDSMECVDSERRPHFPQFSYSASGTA
T1 sequence (Q9Y243 whole entry): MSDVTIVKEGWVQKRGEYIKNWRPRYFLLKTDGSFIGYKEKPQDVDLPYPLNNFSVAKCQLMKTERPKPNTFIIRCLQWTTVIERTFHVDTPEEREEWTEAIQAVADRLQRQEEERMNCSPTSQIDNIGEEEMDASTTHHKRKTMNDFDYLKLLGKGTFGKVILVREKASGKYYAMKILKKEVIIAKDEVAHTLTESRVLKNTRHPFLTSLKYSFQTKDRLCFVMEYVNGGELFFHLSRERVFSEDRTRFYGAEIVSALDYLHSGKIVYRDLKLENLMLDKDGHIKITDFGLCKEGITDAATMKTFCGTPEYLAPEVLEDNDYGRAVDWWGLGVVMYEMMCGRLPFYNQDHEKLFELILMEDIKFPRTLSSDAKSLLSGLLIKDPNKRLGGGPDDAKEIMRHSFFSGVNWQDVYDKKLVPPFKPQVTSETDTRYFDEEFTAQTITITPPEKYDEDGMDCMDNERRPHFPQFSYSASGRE

Consider `Cn1c(N2CC[C@H](O)C2)nc2oc(-c3ccc(C4(N)CCC4)cc3)c(-c3ccccc3)c2c1=O` [Example 56, (S)-6-(4-(1-aminocyclobutyl)phenyl)-2-(3-hydroxypyrrolidin-1-yl)-3-methyl-5-phenylfuro[2,3-d]pyrimidin-4(3H)-one], for which the IC50 was 1 to 10 µM in test [1], 0.1 to 1 µM in test [2] and at most 0.1 µM in test [3].

For `Cn1c(N2CC[C@@H](O)C2)nc2oc(-c3ccc(C4(N)CCC4)cc3)c(-c3ccccc3)c2c1=O` [Example 57, (R)-6-(4-(1-Aminocyclobutyl)phenyl)-2-(3-hydroxypyrrolidin-1-yl)-3-methyl-5-phenylfuro[2,3-d]pyrimidin-4(3H)-one], the IC50 was 1 to 10 µM in test [1], 0.1 to 1 µM in test [2] and at most 0.1 µM in test [3].

With `Cn1c(N2CCCC2)nc2oc(-c3ccc(C4(N)CCC4)cc3)c(-c3ccccc3)c2c1=O` [Example 58, 6-(4-(1-Aminocyclobutyl)phenyl)-3-methyl-5-phenyl-2-(pyrrolidin-1-yl)furo[2,3-d]pyrimidin-4(3H)-one hydrochloride], the values for the IC50 in test [1], in test [2] and in test [3] were 1 to 10 µM, 0.1 to 1 µM and 0.1 to 1 µM, respectively.

For `Cn1c(N2CCC(O)CC2)nc2oc(-c3ccc(C4(N)CCC4)cc3)c(-c3ccccc3)c2c1=O` [Example 59, 6-(4-(1-Aminocyclobutyl)phenyl)-2-(4-hydroxypiperidin-1-yl)-3-methyl-5-phenylfuro[2,3-d]pyrimidin-4(3H)-one hydrochloride], the figures for the IC50 in test [1], in test [2] and in test [3] were 1 to 10 µM, 0.1 to 1 µM and at most 0.1 µM, respectively.

With `CNC(=O)CNc1nc2oc(-c3ccc(C4(N)CCC4)cc3)c(-c3ccccc3)c2c(=O)n1C` [Example 60, 2-((6-(4-(1-Aminocyclobutyl)phenyl)-3-methyl-4-oxo-5-phenyl-3,4-dihydrofuro[2,3-d]pyrimidin-2-yl)amino)-N-methylacetamide hydrochloride], the figures for the IC50 in test [1], in test [2] and in test [3] were over 10 µM, 1 to 10 µM and 0.1 to 1 µM, respectively.

In the case of `Cn1c(N2CC(O)C2)nc2oc(-c3ccc(C4(N)CCC4)cc3)c(-c3ccccc3)c2c1=O` [Example 61, 6-(4-(1-Aminocyclobutyl)phenyl)-2-(3-hydroxyazetidin-1-yl)-3-methyl-5-phenylfuro[2,3-d]pyrimidin-4(3H)-one], the IC50 in test [1] fell in the range of 1 to 10 µM; in test [2] it was 0.1 to 1 µM; in test [3], 0.1 to 1 µM.

For the molecule `C[C@@H](O)CNc1nc2oc(-c3ccc(C4(N)CCC4)cc3)c(-c3ccccc3)c2c(=O)n1C` [Example 62, (R)-6-(4-(1-Aminocyclobutyl)phenyl)-2-((2-hydroxypropyl)amino)-3-methyl-5-phenylfuro[2,3-d]pyrimidin-4(3H)-one], the values for the IC50 in test [1], in test [2] and in test [3] were 1 to 10 µM, 0.1 to 1 µM and 0.1 to 1 µM, respectively.

For the molecule `Cn1c(NCC(N)=O)nc2oc(-c3ccc(C4(N)CCC4)cc3)c(-c3ccccc3)c2c1=O` [Example 63, 2-((6-(4-(1-Aminocyclobutyl)phenyl)-3-methyl-4-oxo-5-phenyl-3,4-dihydrofuro[2,3-d]pyrimidin-2-yl)amino)acetamide], the figures for the IC50 in test [1], in test [2] and in test [3] were over 10 µM, 0.1 to 1 µM and 0.1 to 1 µM, respectively.

For `Cn1c(NCCO)nc2oc(-c3ccc(C4(N)CCC4)cc3)c(-c3ccccc3)c2c1=O` [Example 64, 6-(4-(1-Aminocyclobutyl)phenyl)-2-(2-hydroxyethylamino)-3-methyl-5-phenylfuro[2,3-d]pyrimidin-4(3H)-one hydrochloride], the IC50 was 1 to 10 µM in test [1], at most 0.1 µM in test [2] and 0.1 to 1 µM in test [3].

As for `CNc1nc2oc(-c3ccc(C4(N)CCC4)cc3)c(-c3ccccc3)c2c(=O)n1C` [Example 65, 6-(4-(1-Aminocyclobutyl)phenyl)-3-methyl-2-(methylamino)-5-phenylfuro[2,3-d]pyrimidin-4(3H)-one hydrochloride], the IC50 in test [1] fell in the range of 1 to 10 µM; in test [2], 0.1 to 1 µM; in test [3] it was 0.1 to 1 µM.

As to `Cn1cnc2oc(-c3ccc(C4(N)CCC4)cc3)c(-c3ccccc3)c2c1=O` [Example 66, 6-(4-(1-Aminocyclobutyl)phenyl)-3-methyl-5-phenylfuro[2,3-d]pyrimidin-4(3H)-one], the IC50 was over 10 µM in test [1], 0.1 to 1 µM in test [2] and 0.1 to 1 µM in test [3].

Turning to `COCCn1c(SC)nc2oc(-c3ccc(C4(N)CCC4)cc3)c(-c3ccccc3)c2c1=O` [Example 67, 6-(4-(1-Aminocyclobutyl)phenyl)-3-(2-methoxyethyl)-2-(methylthio)-5-phenylfuro[2,3-d]pyrimidin-4(3H)-one, HCl], the IC50 in test [1] was 0.1 to 1 µM; in test [2], 0.1 to 1 µM; in test [3], at most 0.1 µM.

Turning to `CNc1nc(SC)nc2oc(-c3ccc(C4(N)CCC4)cc3)c(-c3ccccc3)c12` [Example 68, 6-(4-(1-Aminocyclobutyl)phenyl)-N-methyl-2-(methylthio)-5-phenylfuro[2,3-d]pyrimidin-4-amine, HCl], the concentration for half-maximal inhibition (IC50) in test [1], in test [2] and in test [3] was 0.1 to 1 µM each time.

In the case of `CNc1nc2oc(-c3ccc(C4(N)CCC4)cc3)c(-c3ccccc3)c2c(=O)n1CCOC` [Example 69, 6-(4-(1-Aminocyclobutyl)phenyl)-3-(2-methoxyethyl)-2-(methylamino)-5-phenylfuro[2,3-d]pyrimidin-4(3H)-one, HCl], the results for the IC50 in test [1], in test [2] and in test [3] were over 10 µM, 1 to 10 µM and 0.1 to 1 µM, respectively.

Take `CN(C)c1nc(NCCO)nc2oc(-c3ccc(C4(N)CCC4)cc3)c(-c3ccccc3)c12` [Example 70, 2-(6-(4-(1-Aminocyclobutyl)phenyl)-4-(dimethylamino)-5-phenylfuro[2,3-d]pyrimidin-2-ylamino)ethanol, HCl]: the figures for the half-maximal inhibitory concentration (IC50) in test [1], in test [2] and in test [3] were over 10 µM, 1 to 10 µM and 1 to 10 µM, respectively.

Consider `NC1(c2ccc(-c3oc4nc(NCCO)nc(N5CCOCC5)c4c3-c3ccccc3)cc2)CCC1` [Example 71, 2-((6-(4-(1-Aminocyclobutyl)phenyl)-4-morpholino-5-phenylfuro[2,3-d]pyrimidin-2-yl)amino)ethanol], for which the IC50 in test [1] is over 10 µM; in test [2], 1 to 10 µM; in test [3], 1 to 10 µM.

Consider `Cc1nc(NCCO)nc2oc(-c3ccc(C4(N)CCC4)cc3)c(-c3ccccc3)c12` [Example 72, 2-((6-(4-(1-Aminocyclobutyl)phenyl)-4-methyl-5-phenylfuro[2,3-d]pyrimidin-2-yl)amino)ethanol], for which the IC50 lay in the range of 1 to 10 µM in test [1], 0.1 to 1 µM in test [2] and 0.1 to 1 µM in test [3].

Turning to `NC1(c2ccc(-c3oc4nc(NCCO)nc(C(F)(F)F)c4c3-c3ccccc3)cc2)CCC1` [Example 73, 2-((6-(4-(1-Aminocyclobutyl)phenyl)-5-phenyl-4-(trifluoromethyl)furo[2,3-d]pyrimidin-2-yl)amino)ethanol], the values for the IC50 in test [1], in test [2] and in test [3] were over 10 µM, 0.1 to 1 µM and 0.1 to 1 µM, respectively.

Take `CSc1nc(C(F)(F)F)c2c(-c3ccccc3)c(-c3ccc(C4(N)CCC4)cc3)oc2n1` [Example 74, 1-(4-(2-(Methylthio)-5-phenyl-4-(trifluoromethyl)furo[2,3-d]pyrimidin-6-yl)phenyl)cyclobutanamine hydrochloride]: the IC50 was over 10 µM in test [1], 1 to 10 µM in test [2] and 1 to 10 µM in test [3].

The values are drawn from patent US20120309739A1, “AKT / PKB INHIBITORS” (ALMAC DISCOVERY LIMITED, priority 2009, published 2012).
